From patent publication US8933245B2, “Preservation of ergothioneine” (ELC Management LLC, priority 2009, dated 2015)
“And” between values parts separate entries of the source, which are not always exact repeats. Equal values may be shown once. Each block holds one compound with its values, some of them ahead of it.

What was measured:
[1] = Preventing trimethylamine odor by addition of compounds before heating ergothioneine with sodium hydroxide; format: physicochemical; settings: for % EGT (w/v): boiled 10 minutes, HPLC
Procedure: Samples were prepared in glass tubes with screw caps with about 0.05% (w/v) ergothioneine in water, a test sample, at the indicated concentration, and 0.1N NaOH (except for the first tube, in which NaOH was omitted as a negative control). The pH of each sample was determined by litmus paper, and then the tubes capped and placed in a boiling water bath for 10 minutes. The tubes were then cooled to room temperature, and then each one was uncapped and smelled by three testers, each of whom scored the odor. The scores were converted to a scale of 0 (no odor) to 3 (strong fishy trimethylamine odor) and then averaged.

[2] = cited from earlier work; for Ka: acid listed with one ionized form
[3] = Formation of fishy amine odor by boiling ergothioneine with sodium hydroxide or other components; format: physicochemical
Procedure: This became the assay system used to test agents and procedures for reduction or prevention of the odor.
Four samples of a 5 ml ergothioneine solution at 0.1% (w/v) were prepared in glass test tubes with screw caps. To the first was added 5 ml of water, to the second 5 ml of 0.2% (w/v) sodium metabisulfite, to the third 4 ml of water and 1 ml of 1N sodium hydroxide, and to the fourth 5 ml of 0.2% (w/v) citric acid. […] The samples were boiled for 10 minutes and each one was smelled.
This allowed the testing of methods to inhibit the formation of the odor and to suppress the odor after formation.

[4] = Formation of yellow addition product of ergothioneine and sodium metabisulfite; format: physicochemical; settings: 1.25% ergothioneine and 5% sodium metabisulfite; cap removed, shaken, ambient air bubbled; after 6 to 7 minutes
[5] = as above; format: physicochemical
Procedure: The vials were sealed and mixing the samples was avoided. The samples were incubated and color development observed. The solutions were examined at 1 hour, and the optical density at 405 nm was measured at 2 hours (Table 9).
The cap was removed and the solution was then shaken for 3 to 4 minutes and ambient air was bubbled through it to drive out the dissolved sulfur dioxide gas. […] Therefore the loss of ergothioneine after addition of sodium metabisulfite is due to formation of an addition product which is reversible, and the ergothioneine is not permanently lost.

[6] = Stability of ergothioneine during storage with and without citric acid (HPLC); format: physicochemical; settings: percent of starting concentration, 2 mM in water; for % EGT with citric acid: 0.2% citric acid
Procedure: The samples were stored at 4° C., 25° C. or 40° C. for 30 or 60 days and then analyzed by HPLC. Each vial was used once and then discarded. Each measurement was made in triplicate and the results averaged. A standard curve of ergothioneine concentration was constructed at each time point to quantify the amount of ergothioneine in each vial. Each amount in Table 2 is expressed as percentage of the amount measured in the initial sample at the start of the experiment.

[7] = Stability of ergothioneine solution at acidic pH on heating; format: physicochemical; settings: 0.05% solution, pH 5, heating 40 C for 60 days
Text: It has been observed that ergothioneine is quite stable at acidic pH. At pH 5 a 0.05% solution remains within 1% of its concentration after heating 40 C for 60 days. However, the reports of its stability in alkali are mixed in the literature. See, for example, Philip Hartman. “Ergothioneine as antioxidant”, Methods Enzymol. 186:310-318, 1990 at p. 311 (“ . . . the sulfur atom of Ergothioneine is remarkably stable to alkali”); H. Heath and G. Toennies. “The preparation and properties of Ergothioneine disulphide”, J. Chem. Soc. pages 204-210, (1958) at p. 204 (“the sulphur is completely unaffected by boiling 50% aqueous potassium hydroxide.”); Oxis International, Inc. Compound Monograph “L-Ergothioneine. Revision III”, at p. […] “Synthesis of L-(+)-Ergothioneine”, J. Org. Chem. 60:6296-6301, 1995 at p. 6296 (“this explains its stability toward oxidative dimerization”).

[8] = test sample 0.01%, about 0.05% ergothioneine, 0.1N NaOH, litmus paper
[9] = test sample 0.05%, about 0.05% ergothioneine, 0.1N NaOH, litmus paper
[10] = test sample 0.2%, about 0.05% ergothioneine, 0.1N NaOH, litmus paper
[11] = ergothioneine 1.25%, sodium metabisulfite 5.0%
[12] = ergothioneine 1.25%, sodium metabisulfite 7.5%
[13] = ergothioneine 1.25%, sodium metabisulfite 10%
[14] = ergothioneine 1.25%, sodium metabisulfite 12.5%
[15] = ergothioneine 1.25%, sodium metabisulfite 15%
[16] = ergothioneine 1.25%, sodium metabisulfite 17.5%
[17] = ergothioneine 1.25%, sodium metabisulfite 20%
[18] = ergothioneine 1.25%, sodium metabisulfite 22.5%
[19] = ergothioneine 1.25%, sodium metabisulfite 25%
[20] = ergothioneine 1.25%, sodium metabisulfite […]
[21] = ergothioneine […], sodium metabisulfite 0

SMILES: Cl [Hydrochloric acid]
- % EGT (w/v) ([1]; test sample 0.0001%, 0.1N NaOH): 0.050 % (w/v)
- pH ([1]; test sample 0.0001%, about 0.05% ergothioneine, 0.1N NaOH, litmus paper): 11.5
- % EGT (w/v) ([1]; test sample 0.01%, 0.1N NaOH): 0.050 % (w/v)
- pH [1, 8]: 10

- % EGT (w/v) ([1]; test sample 0.01%, 0.1N NaOH): 0.050 % (w/v)
- pH [1, 8]: 10.5
- % EGT (w/v) ([1]; test sample 0.05%, 0.1N NaOH): 0.052 % (w/v)
- pH [1, 9]: 8
- % EGT (w/v) ([1]; test sample 0.2%, 0.1N NaOH): 0.052 % (w/v)
- pH [1, 10]: 4
SMILES: CC(=O)O [acetic acid]
- Ka [2]: 1.74E−5

- % EGT (w/v) ([1]; test sample 0.01%, 0.1N NaOH): 0.050 % (w/v)
- pH [1, 8]: 10.5
- % EGT (w/v) ([1]; test sample 0.05%, 0.1N NaOH): 0.050 % (w/v)
- pH [1, 9]: 10.5
- % EGT (w/v) ([1]; test sample 0.2%, 0.1N NaOH): 0.047 % (w/v)
- pH [1, 10]: 5
SMILES: O=C1O[C@H]([C@@H](O)CO)C(O)=C1O [ascorbic acid]

- pH [1]: 8.5 and 10 and 10.5
- % EGT (w/v) ([1]; test sample 0.01%, 0.1N NaOH): 0.050 % (w/v)
- % EGT (w/v) ([1]; test sample 0.05%, 0.1N NaOH): 0.051 % (w/v)
- % EGT (w/v) ([1]; test sample 0.2%, 0.1N NaOH): 0.052 % (w/v)
SMILES: OB(O)O [boric acid]

- pH [1]: 8 and 10
- % EGT (w/v) ([1]; test sample 0.01%, 0.1N NaOH): 0.052 % (w/v)
- % EGT (w/v) ([1]; test sample 0.05%, 0.1N NaOH): 0.053 % (w/v)
- % EGT (w/v) ([1]; test sample 0.2%, 0.1N NaOH): 0.054 % (w/v)
- pH [3]: 5
SMILES: O=C(O)CC(O)(CC(=O)O)C(=O)O [citric acid]

- color of solution after driving out sulfur dioxide [4]: nearly colorless with a yellow tinge
- color of solution ([5]; 1.25% ergothioneine and 5% sodium metabisulfite, one week at room temperature in a capped tube): intense lemon yellow
- Color description at 1 h [5, 11]: Near colorless
- OD405 at 2 hr [5, 11]: 0.104
- Color description at 1 h [5, 12]: Yellow tinge
- OD405 at 2 hr [5, 12]: 0.186
- Color description at 1 h [5, 13]: Slight yellow
- OD405 at 2 hr [5, 13]: 0.265
- Color description at 1 h [5, 14]: Light yellow
- OD405 at 2 hr [5, 14]: 0.456
- Color description at 1 h [5, 15]: Yellow
- OD405 at 2 hr [5, 15]: 0.593
- Color description at 1 h [5, 16]: Yellow
- OD405 at 2 hr [5, 16]: 0.966
- Color description at 1 h [5, 17]: Light lemon yellow
- OD405 at 2 hr [5, 17]: 1.993
- Color description at 1 h [5, 18]: Intense lemon yellow
- OD405 at 2 hr [5, 18]: 2.873
- Color description at 1 h [5, 19]: Intense lemon yellow
- OD405 at 2 hr [5, 19]: 3.126
- Color description at 1 h [5, 20]: Colorless
- OD405 at 2 hr [5, 20]: 0.044
- Color description at 1 h [5, 21]: Colorless
- OD405 at 2 hr [5, 21]: 0.004
- % EGT with citric acid ([6]; 4° C., 30 days): 101.6%
- % EGT with citric acid ([6]; 4° C., 60 days): 105.8%
- % EGT with citric acid ([6]; 25° C., 30 days): 101.5%
- % EGT with citric acid ([6]; 25° C., 60 days): 102.2%
- % EGT with citric acid ([6]; 40° C., 30 days): 101.1%
- % EGT with citric acid ([6]; 40° C., 60 days): 99.6%
- % EGT without citric acid ([6]; 4° C., 30 days): 96.1%
- % EGT without citric acid ([6]; 4° C., 60 days): 106.5%
- % EGT without citric acid ([6]; 25° C., 30 days): 84.0%
- % EGT without citric acid ([6]; 25° C., 60 days): 100.5%
- % EGT without citric acid ([6]; 40° C., 30 days): 86.3%
- % EGT without citric acid ([6]; 40° C., 60 days): 99.8%
- change of concentration [7]: ≤ 1%
SMILES: C[N+](C)(C)[C@@H](Cc1c[nH]c(=S)[nH]1)C(=O)[O-] [ergothioneine]

SMILES: CCCCCCC(=O)O [heptanoic acid]
- Ka [2]: 1.29E−5

SMILES: CCCCC(=O)O [pentanoic acid]
- Ka [2]: 3.31E−5

- % EGT (w/v) ([1]; test sample 0.01%, 0.1N NaOH): 0.052 % (w/v)
- % EGT (w/v) ([1]; test sample 0.05%, 0.1N NaOH): 0.054 % (w/v)
- % EGT (w/v) ([1]; test sample 0.2%, 0.1N NaOH): 0.058 % (w/v)
SMILES: O=P(O)(O)O [phosphoric acid]

SMILES: [Na+].[OH-] [sodium hydroxide]
- pH [3]: approximately 10

- % EGT (w/v) ([1]; test sample 0.01%, 0.1N NaOH): 0.044 % (w/v)
- pH [1, 8]: 10
- % EGT (w/v) ([1]; test sample 0.05%, 0.1N NaOH): 0.037 % (w/v)
- pH [1, 9]: 9.5
- % EGT (w/v) ([1]; test sample 0.2%, 0.1N NaOH): 0.029 % (w/v)
- pH [1, 10]: 6.5
- pH ([3]; litmus paper, before boiling, 5 ml 0.1% ergothioneine plus 5 ml addition): 5
- time to apparent reduction in the amount of ergothioneine (HPLC) ([5]; after addition of sodium metabisulfite, room temperature without boiling): ≤ 10 min
SMILES: O=S([O-])S(=O)(=O)[O-].[Na+].[Na+] [sodium metabisulfite]

SMILES: O=S(O)O [sulfurous acid]
- Ka (1) ([2]; first ionized form): 1.41E−2
- Ka (2) ([2]; second ionized form): 6.31E−8

SMILES: O=c1[nH]c(=O)c2[nH]c(=O)[nH]c2[nH]1 [uric acid]
- Ka [2]: 1.29E−4
